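How tested: cells in 96-well plates exposed to compound for 48 hours at five concentrations. GI50 marks 50% less growth.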 Active and inactive are the calls of the source. Cut-off read from the data, not from the text of the source: active = GI50 up to about 1.1 µM and inactive = higher.
Tests used:
Experiment in all cases: NCI tumour cell line growth inhibition, 48 h
NCI-H23 = tested on: NCI-H23
Hs-578T = tested on: Hs-578T
OVCAR-3 = tested on: OVCAR-3
SR = tested on: SR
NCI-H522 = tested on: NCI-H522
DU-145 = tested on: DU-145
ACHN = tested on: ACHN
MDA-N = tested on: MDA-N
DMS-114 = tested on: DMS-114
A498 = tested on: A498
KM12 = tested on: KM12
SF-295 = tested on: SF-295
HOP-18 = tested on: HOP-18
UACC-62 = tested on: UACC-62
TK-10 = tested on: TK-10
HL-60 = tested on: HL-60
PC-3 = tested on: PC-3
COLO 205 = tested on: COLO 205
SF-268 = tested on: SF-268
CCRF-CEM = tested on: CCRF-CEM
HCT-15 = tested on: HCT-15
MDA-MB-435 = tested on: MDA-MB-435
NCI/ADR-RES = tested on: NCI/ADR-RES
IGROV-1 = tested on: IGROV-1
SK-OV-3 = tested on: SK-OV-3
SNB-75 = tested on: SNB-75
LOX IMVI = tested on: LOX IMVI
RXF 393 = tested on: RXF 393
SNB-19 = tested on: SNB-19
RPMI-8226 = tested on: RPMI-8226
SK-MEL-28 = tested on: SK-MEL-28
DLD-1 = tested on: DLD-1
HCC 2998 = tested on: HCC 2998
SN12C = tested on: SN12C
M14 = tested on: M14
OVCAR-4 = tested on: OVCAR-4
SK-MEL-5 = tested on: SK-MEL-5
KM-20L2 = tested on: KM-20L2
HOP-92 = tested on: HOP-92
U-251 = tested on: U-251
OVCAR-5 = tested on: OVCAR-5
T47D = tested on: T47D
MDA-MB-231 = tested on: MDA-MB-231
SK-MEL-2 = tested on: SK-MEL-2
SW-620 = tested on: SW-620
M19-MEL = tested on: M19-MEL
A549 = tested on: A549
MCF7 = tested on: MCF7
SF-539 = tested on: SF-539
K562 = tested on: K562
Malme-3M = tested on: Malme-3M
UO-31 = tested on: UO-31
HT-29 = tested on: HT-29
EKVX = tested on: EKVX
HCT-116 = tested on: HCT-116
SNB-78 = tested on: SNB-78
CAKI-1 = tested on: CAKI-1
HOP-62 = tested on: HOP-62
DMS-273 = tested on: DMS-273
NCI-H460 = tested on: NCI-H460
BT-549 = tested on: BT-549
OVCAR-8 = tested on: OVCAR-8
UACC-257 = tested on: UACC-257
786-0 = tested on: 786-0
NCI-H226 = tested on: NCI-H226
MOLT-4 = tested on: MOLT-4

Measured: GI50

Cc1c2cc[n+](CCN3CCCCC3)cc2c(C)c2c1[nH]c1ccc(O)cc12
12.5 µM: HCT-15
active: SR 0.0723 µM | CCRF-CEM 1.11 µM | SNB-75 0.647 µM | SN12C 0.401 µM | U-251 0.8 µM | M19-MEL 0.982 µM | NCI-H460 0.418 µM
inactive: NCI-H23 5.46 µM | Hs-578T 2.84 µM | OVCAR-3 6.05 µM | NCI-H522 1.99 µM | DU-145 1.89 µM | ACHN 5.92 µM | MDA-N 12.1 µM | DMS-114 1.51 µM | A498 10.6 µM | KM12 1.64 µM | SF-295 1.47 µM | HOP-18 13.1 µM | UACC-62 5.47 µM | TK-10 15.1 µM | HL-60 1.69 µM | PC-3 7.96 µM | COLO 205 1.66 µM | SF-268 1.4 µM | MDA-MB-435 10.2 µM | NCI/ADR-RES 16.3 µM | IGROV-1 2.89 µM | SK-OV-3 3.02 µM | LOX IMVI 4.41 µM | RXF 393 5.2 µM | SNB-19 1.16 µM | RPMI-8226 2.48 µM | SK-MEL-28 6.1 µM | DLD-1 4.6 µM | HCC 2998 3.12 µM | M14 9.27 µM | OVCAR-4 1.13 µM | SK-MEL-5 2.54 µM | KM-20L2 6.43 µM | HOP-92 5.11 µM | OVCAR-5 10.5 µM | T47D 2.82 µM | MDA-MB-231 9.93 µM | SK-MEL-2 11.9 µM | SW-620 3.19 µM | A549 1.35 µM | MCF7 1.76 µM | SF-539 3.45 µM | K562 2.69 µM | Malme-3M 2.39 µM | UO-31 17.1 µM | HT-29 8 µM | EKVX 3.92 µM | HCT-116 2.58 µM | SNB-78 3.75 µM | CAKI-1 5.48 µM | HOP-62 2.32 µM | DMS-273 1.72 µM | BT-549 11.8 µM | OVCAR-8 2.04 µM | UACC-257 13.7 µM | 786-0 2.41 µM

CC(C)(C)c1cc(OCc2nn3c(Cc4ccccc4)nnc3s2)c(Cl)cc1OCc1nn2c(Cc3ccccc3)nnc2s1
inactive: NCI-H23 39.1 µM | Hs-578T > 100 µM | OVCAR-3 15.6 µM | SR 39.9 µM | NCI-H522 23.5 µM | DU-145 30.5 µM | ACHN 14.4 µM | MDA-N 36.5 µM | A498 15 µM | KM12 26.9 µM | SF-295 12.8 µM | UACC-62 24.1 µM | TK-10 34.4 µM | HL-60 23.9 µM | PC-3 20.1 µM | COLO 205 24.7 µM | NCI-H226 > 100 µM | SF-268 55.5 µM | CCRF-CEM 6.67 µM | MOLT-4 8.93 µM | MDA-MB-435 26.4 µM | NCI/ADR-RES 39.3 µM | IGROV-1 20.7 µM | SK-OV-3 > 100 µM | SNB-75 91 µM | LOX IMVI 37.1 µM | RXF 393 17.1 µM | SNB-19 80.9 µM | RPMI-8226 10.6 µM | SK-MEL-28 36.2 µM | HCC 2998 53.6 µM | SN12C 34.8 µM | M14 29.7 µM | OVCAR-4 19.8 µM | SK-MEL-5 8.65 µM | HOP-92 16.2 µM | U-251 21.8 µM | OVCAR-5 60.8 µM | T47D 3.43 µM | MDA-MB-231 33.3 µM | SK-MEL-2 30.8 µM | SW-620 43.6 µM | A549 29.7 µM | MCF7 22.5 µM | SF-539 55.5 µM | K562 17.3 µM | Malme-3M 12 µM | UO-31 31.1 µM | HT-29 23.3 µM | EKVX 12.9 µM | HCT-116 16.6 µM | CAKI-1 23.6 µM | HOP-62 94.2 µM | NCI-H460 28.2 µM | BT-549 25.1 µM | OVCAR-8 25.3 µM | UACC-257 23.6 µM | 786-0 30 µM
19.6 µM: HCT-15

From ChEMBL document CHEMBL1201862, “PubChem BioAssay data set” (2004)
